The values that follow come from patent US9096624B2 (OSI Pharmaceuticals, LLC, priority 2009, dated 2015).

By IC50 is commonly meant the concentration at which inhibition is half-maximal.

The target of test [1] is T1, FAK (Homo sapiens, UniProt Q05397). In words: Cell-based capture ELISA for inhibition of FAK autophosphorylation [pY397] in MiaPaCa2 cells. The method, then:
Cell-Based Assays for Inhibition of FAK Autophosphorylation: MiaPaCa2 and U87MG
ELISA kit from Invitrogen (KHO0441).
Reagents Provided in Biosource FAK [pY397]
The cells were then suspended in cell assay medium.
Background: ELISA stands for enzyme-linked immunosorbent assay.

Test [2] concerns the target T1, FAK. In words: biochemical.
The target in test [3] is T1, FAK. Put plainly: Cell-based capture ELISA for inhibition of FAK autophosphorylation [pY397] in U87MG cells.
The mark [4] stands for this setting: MIA-PaCa2 cells, + 50% mouse plasma (Table 3), read-out: Mean FAK Cell Mechanistic IC50 + 50% mP MIA-PaCa2.
Setting [5] is: Mean FAK Cell Mechanistic IC50 + 50% mP U87MG, + 50% mouse plasma.

T1 sequence (Q05397 whole entry): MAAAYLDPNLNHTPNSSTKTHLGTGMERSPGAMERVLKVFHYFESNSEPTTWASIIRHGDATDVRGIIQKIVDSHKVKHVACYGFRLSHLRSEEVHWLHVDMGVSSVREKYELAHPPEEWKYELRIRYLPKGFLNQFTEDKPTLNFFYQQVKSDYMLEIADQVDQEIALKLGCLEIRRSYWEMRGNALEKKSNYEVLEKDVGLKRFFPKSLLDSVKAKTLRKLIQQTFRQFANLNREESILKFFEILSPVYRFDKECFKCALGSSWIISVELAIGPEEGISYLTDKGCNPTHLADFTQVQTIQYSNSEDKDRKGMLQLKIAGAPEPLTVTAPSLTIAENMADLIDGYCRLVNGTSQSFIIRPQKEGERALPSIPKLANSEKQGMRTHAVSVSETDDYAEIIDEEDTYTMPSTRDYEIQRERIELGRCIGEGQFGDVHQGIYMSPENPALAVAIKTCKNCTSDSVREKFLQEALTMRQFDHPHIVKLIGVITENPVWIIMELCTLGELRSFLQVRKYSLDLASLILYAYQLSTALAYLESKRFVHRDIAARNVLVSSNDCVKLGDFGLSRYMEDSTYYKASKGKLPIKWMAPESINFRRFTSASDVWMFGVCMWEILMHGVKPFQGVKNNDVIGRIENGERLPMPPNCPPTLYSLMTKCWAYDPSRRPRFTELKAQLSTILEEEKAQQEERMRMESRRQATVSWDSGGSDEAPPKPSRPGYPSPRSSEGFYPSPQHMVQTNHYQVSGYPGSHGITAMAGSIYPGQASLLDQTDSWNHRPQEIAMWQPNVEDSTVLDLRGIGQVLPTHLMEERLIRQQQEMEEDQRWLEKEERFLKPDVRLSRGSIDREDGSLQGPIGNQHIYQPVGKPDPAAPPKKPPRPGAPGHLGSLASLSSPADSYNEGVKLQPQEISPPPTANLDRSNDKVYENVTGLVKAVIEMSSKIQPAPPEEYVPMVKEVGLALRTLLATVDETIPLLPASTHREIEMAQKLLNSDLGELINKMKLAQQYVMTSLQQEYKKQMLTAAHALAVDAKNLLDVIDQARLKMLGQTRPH

As for `CCOP(=O)(Cc1ccc(Nc2ncc(C(F)(F)F)c(Nc3ccccc3C(=O)NC)n2)c(OC)c1)OCC` [Ex. 53, diethyl (3-methoxy-4-{[4-{[2-(methylcarbamoyl)phenyl]amino}-5-(trifluoromethyl)pyrimidin-2-yl]amino}benzyl)phosphonate], the IC50 in test [1] (MIA-PaCa2 cells on fibronectin, 2 h, no plasma, read-out: Mean FAK Cell Mechanistic IC50 MIA-PaCa2) is below 1000 nM; in test [1] (MIA-PaCa2 cells, + 50% human plasma, read-out: Mean FAK Cell Mechanistic IC50 + 50% hP MIA-PaCa2) it was below 1000 nM; in test [2], below 1000 nM; in test [3] (U87MG FAK Cell Mech IC50 +hP, + human plasma), 160 nM; in test [3] (U87MG FAK Cell Mech IC50 +mP, + mouse plasma), 70 nM.
On to `CCOP(=O)(Cc1ccc(Nc2ncc(C(F)(F)F)c(Nc3ccc([C@H]4CC[C@H](O)CC4)cc3C(=O)NC)n2)cc1)OCC` [Example 139, Diethyl (4-{[4-{[4-(trans-4-hydroxycyclohexyl)-2-(methylcarbamoyl)phenyl]amino}-5-(trifluoromethyl)pyrimidin-2-yl]amino}benzyl)phosphonate], for which the IC50 in test [1] (setting [4]) was below 1000 nM; in test [2] it was below 1000 nM; in test [3] (setting [5]), 1000 to 10000 nM.
In the case of `CCOP(=O)(Cc1ccc(Nc2ncc(C(F)(F)F)c(Nc3ccc([C@H]4CC[C@H](O)CC4)cc3C(=O)NC)n2)c(OC)c1)OCC` [Example 141, Diethyl (4-{[4-{[4-(trans-4-hydroxycyclohexyl)-2-(methylcarbamoyl)phenyl]amino}-5-(trifluoromethyl)pyrimidin-2-yl]amino}-3-methoxybenzyl)phosphonate], the half-inhibitory concentration (IC50) in test [1] (setting [4]), in test [2] and in test [3] (setting [5]) was below 1000 nM each time.
As to `CCOP(=O)(Cc1ccc(Nc2ncc(C(F)(F)F)c(Nc3ccccc3C(=O)NC)n2)c(OC)c1F)OCC` [Example 147, Diethyl (2-fluoro-3-methoxy-4-{[4-{[2-(methylcarbamoyl)phenyl]amino}-5-(trifluoromethyl)pyrimidin-2-yl]amino}benzyl)phosphonate], the IC50 in test [1] (setting [4]), in test [2] and in test [3] (setting [5]) was below 1000 nM each time.
On to `CCOP(=O)(Cc1ccc(Nc2ncc(C(F)(F)F)c(Nc3ccc(-c4cnn(CCCO)c4)c4c3C(=O)N(C)C4)n2)cc1)OCC` [Example 156, Diethyl (4-{[4-({7-[1-(3-hydroxypropyl)-1H-pyrazol-4-yl]-2-methyl-3-oxo-2,3-dihydro-1H-isoindol-4-yl}amino)-5-(trifluoromethyl)pyrimidin-2-yl]amino}benzyl)phosphonate], for which the IC50 in test [1] (setting [4]), in test [2] and in test [3] (setting [5]) was below 1000 nM in each case.
In the case of `CCOP(=O)(Cc1ccc(Nc2ncc(C(F)(F)F)c(Nc3cccc4c3C(=O)N(C)C4C)n2)c(OC)c1)OCC` (centres unmarked) [Example 158, Diethyl [4-({4-[(1,2-dimethyl-3-oxo-2,3-dihydro-1H-isoindol-4-yl)amino]-5-(trifluoromethyl)pyrimidin-2-yl}amino)-3-methoxybenzyl]phosphonate], the IC50 in test [1] (setting [4]), in test [2] and in test [3] (setting [5]) was below 1000 nM in each case.
Turning to `CCCP(=O)(CCC)c1cccc(Nc2ncc(C(F)(F)F)c(Nc3ccc([C@H]4CC[C@H](O)CC4)c4c3C(=O)N(C)C4)n2)c1` [Example 171, 7-{[2-{[3-(Dipropylphosphoryl)phenyl]amino}-5-(trifluoromethyl)pyrimidin-4-yl]amino}-4-(trans-4-hydroxycyclohexyl)-2-methyl-2,3-dihydro-1H-isoindol-1-one], the IC50 in test [1] (setting [4]), in test [2] and in test [3] (setting [5]) was below 1000 nM each time.
On to `CCOP(=O)(Cc1ccc(Nc2ncc(C(F)(F)F)c(Nc3ccc([C@H]4CC[C@H](O)CC4)c4c3C(=O)N(C)C4)n2)c(OC)n1)OCC` [Example 286, Diethyl [(5-{[4-{[7-(trans-4-hydroxycyclohexyl)-2-methyl-3-oxo-2,3-dihydro-1H-isoindol-4-yl]amino}-5-(trifluoromethyl)pyrimidin-2-yl]amino}-6-methoxypyridin-2-yl)methyl]phosphonate], for which the IC50 in test [2] and in test [3] (setting [5]) was below 1000 nM each time.
Take `CCOP(=O)(Cc1ccc(Nc2ncc(C(F)(F)F)c(Nc3ccc(N4CCNC(C(=O)O)C4)c4c3C(=O)N(C)C4)n2)c(OC)c1)OCC` (centres unmarked) [Example 287, 4-(7-{[2-({4-[(Diethoxyphosphoryl)methyl]-2-methoxyphenyl}amino)-5-(trifluoromethyl)pyrimidin-4-yl]amino}-2-methyl-1-oxo-2,3-dihydro-1H-isoindol-4-yl)piperazine-2-carboxylic acid]: the half-maximal inhibitory concentration (IC50) was below 1000 nM in test [2] and 1000 to 10000 nM in test [3] (setting [5]).
In the same order, the values of `CCOP(=O)(Cc1ccc(Nc2ncc(C(F)(F)F)c(Nc3ccc([C@H]4CC[C@H](OCOP(=O)(O)O)CC4)c4c3C(=O)N(C)C4)n2)c(OC)c1)OCC` [Example 288, {[trans-4-(7-{[2-({4-[(diethoxyphosphoryl)methyl]-2-methoxyphenyl}amino)-5-(trifluoromethyl)pyrimidin-4-yl]amino}-2-methyl-1-oxo-2,3-dihydro-1H-isoindol-4-yl)cyclohexyl]oxy}methyl phosphate] are below 1000 nM and below 1000 nM.
On the same counts, the results for `CCOP(=O)(Cc1ccc(Nc2ncc(C(F)(F)F)c(Nc3ccc(-c4cnn(CCCO)c4)c4c3C(=O)N(C)C4)n2)c(OC)c1)OCC` [Example 289, Diethyl (4-{[4-({7-[1-(3-hydroxypropyl)-1H-pyrazol-4-yl]-2-methyl-3-oxo-2,3-dihydro-1H-isoindol-4-yl}amino)-5-(trifluoromethyl)pyrimidin-2-yl]amino}-3-methoxybenzyl)phosphonate] are below 1000 nM and below 1000 nM.
Take `CCOP(=O)(Cc1ccc(Nc2ncc(C(F)(F)F)c(Nc3cccc4c3c(=O)c(C)cn4C)n2)c(OC)c1)OCC` [Example 300, Diethyl [4-({4-[(1,3-dimethyl-4-oxo-1,4-dihydroquinolin-5-yl)amino]-5-(trifluoromethyl)pyrimidin-2-yl}amino)-3-methoxybenzyl]phosphonate]: the IC50 in test [2] and in test [3] (setting [5]) was below 1000 nM in each case.
As for `CCOC(=O)Cn1cc(C)c(=O)c2c(Nc3nc(Nc4ccc(CP(=O)(OCC)OCC)cc4OC)ncc3C(F)(F)F)cccc21` [Example 301], the IC50 in test [2] and in test [3] (setting [5]) was below 1000 nM throughout.
As to `CCOP(=O)(Cc1ccc(Nc2ncc(C(F)(F)F)c(Nc3cccc4c3c(=O)c(C)cn4CC(=O)O)n2)c(OC)c1)OCC` [Example 302], the IC50 in test [2] was below 1000 nM; in test [3] (setting [5]), 1000 to 10000 nM.
In the case of `CCOP(=O)(Cc1ccc(Nc2ncc(C(F)(F)F)c(Nc3cccc4c3c(=O)c(C)cn4CP(=O)(OCC)OCC)n2)c(OC)c1)OCC` [Example 303], the IC50 in test [2] and in test [3] (setting [5]) was below 1000 nM in each case.
Take `CCOC(=O)[C@H]1CC[C@H](c2ccc(Nc3nc(Nc4ccc(CP(=O)(OCC)OCC)cc4OC)ncc3C(F)(F)F)c3c(=O)c(C)c[nH]c32)CC1` [Example 304, Ethyl trans-4-(5-{[2-({4-[(diethoxyphosphoryl)methyl]-2-methoxyphenyl}amino)-5-(trifluoromethyl)pyrimidin-4-yl]amino}-3-methyl-4-oxo-1,4-dihydroquinolin-8-yl)cyclohexanecarboxylate]: the IC50 in test [2] and in test [3] (setting [5]) was below 1000 nM in each case.
Consider `CCOC(=O)[C@H]1CC[C@@H](c2ccc(Nc3nc(Nc4ccc(CP(=O)(OCC)OCC)cc4OC)ncc3C(F)(F)F)c3c(=O)c(C)c[nH]c32)CC1` [Example 305, Ethyl cis-4-(5-{[2-({4-[(diethoxyphosphoryl)methyl]-2-methoxyphenyl}amino)-5-(trifluoromethyl)pyrimidin-4-yl]amino}-3-methyl-4-oxo-1,4-dihydroquinolin-8-yl)cyclohexanecarboxylate], for which the IC50 in test [2] and in test [3] (setting [5]) was below 1000 nM throughout.
Consider `CCOP(=O)(Cc1ccc(Nc2ncc(C(F)(F)F)c(Nc3ccc([C@H]4CC[C@@H](C(=O)O)CC4)c4[nH]cc(C)c(=O)c34)n2)c(OC)c1)OCC` [Example 306, Cis-4-(5-{[2-({4-[(diethoxyphosphoryl)methyl]-2-methoxyphenyl}amino)-5-(trifluoromethyl)pyrimidin-4-yl]amino}-3-methyl-4-oxo-1,4-dihydroquinolin-8-yl)cyclohexanecarboxylic acid], for which the IC50 in test [2] and in test [3] (setting [5]) was below 1000 nM throughout.
On to `CCOP(=O)(Cc1ccc(Nc2ncc(C(F)(F)F)c(Nc3ccc([C@H]4CC[C@H](C(=O)O)CC4)c4[nH]cc(C)c(=O)c34)n2)c(OC)c1)OCC` [Example 307, Trans-4-(5-{[2-({4-[(diethoxyphosphoryl)methyl]-2-methoxyphenyl}amino)-5-(trifluoromethyl)pyrimidin-4-yl]amino}-3-methyl-4-oxo-1,4-dihydroquinolin-8-yl)cyclohexanecarboxylic acid], for which the IC50 in test [2] is below 1000 nM; in test [3] (setting [5]), 1000 to 10000 nM.
In the same order, the values of `CCOP(=O)(Cc1cnc(Nc2ncc(C(F)(F)F)c(Nc3ccc([C@H]4CC[C@H](O)CC4)c4c3C(=O)N(C)C4)n2)c(OC)c1)OCC` [Example 308, Diethyl [(6-{[4-{[7-(trans-4-hydroxycyclohexyl)-2-methyl-3-oxo-2,3-dihydro-1H-isoindol-4-yl]amino}-5-(trifluoromethyl)pyrimidin-2-yl]amino}-5-methoxypyridin-3-yl)methyl]phosphonate] are below 1000 nM and 1000 to 10000 nM.
On the same counts, the results for `CCOP(=O)(Cc1ccc(Nc2ncc(C(F)(F)F)c(Nc3c4c(cc[n+]3[O-])CN(C)C4=O)n2)c(OC)c1)OCC` [Example 310] are below 1000 nM and 1000 to 10000 nM.
On the same counts, the results for `CCOP(=O)(Cc1ccc(Nc2ncc(C(F)(F)F)c(Nc3nccc4c3C(=O)N(C)C4)n2)c(OC)c1)OCC` [Example 311] are below 1000 nM and 1000 to 10000 nM.
